Data on nine compounds can be found in patent publication US20250296971A1, “GASTRIC INHIBITORY PEPTIDE RECEPTOR LIGANDS” (priority 2021, published 2025).

Molecules are shown by their SMILES. *1 amine or outer side, *2 acyl side, *3 side chain or, on linkers, in order; H or OH if unused. Where a SMILES comes first, the peptide text is derived from it. Bridges are numbered along the chain shown (N, C = ends). [ ]: non-standard residue; d: D form. The star is where a group is joined. X11 = O=C(CN1CCN2CCN3CCN(CC1)CC(=O)[O][In]([O]C(=O)C2)[O]C(=O)C3)NCCCOCCOCCOCCCN*; NH(CH2)5NHDOTA = O=C(O)CN1CCN(CC(=O)O)CCN(CC(=O)NCCCCCN*)CCN(CC(=O)O)CC1; DOTA(In) = O=C1CN2CCN3CCN(CC(=O)*)CCN(CC2)CC(=O)[O][In]([O]1)[O]C(=O)C3; X3 = O=C(O)CN1CCN(CC(=O)O)CCN(CC(=O)NCCCOCCOCCOCCCN*)CCN(CC(=O)O)CC1; NH(1-deoxy-D-glucityl) = OC[C@@H](O)[C@@H](O)[C@H](O)[C@@H](O)CN*; X8 = O=C(O)CN1CCN(CC(=O)O)CCN(CC(=O)N2CCN(*)CC2)CCN(CC(=O)O)CC1; Pro(trans-4-NH2) = O=C([C@@H]1C[C@@H](N[*:3])CN1[*:1])[*:2]; DOTA = O=C(O)CN1CCN(CC(=O)O)CCN(CC(=O)*)CCN(CC(=O)O)CC1; Trp(5-Cl) = N[C@@H](Cc1c[nH]c2ccc(Cl)cc12)C(=O)O; Pyridine(2,6-diCH2) = c1cc(C[*:1])nc(C[*:2])c1; Glutaryl = O=C(CCCC(=O)[*:2])[*:1]; X6 = c1cc(CSCCN[*:2])nc(C[*:1])c1; X7 = c1cc(CSCCN[*:2])cc(C[*:1])c1; Hyp = O=C(O)[C@@H]1C[C@@H](O)CN1; X1 = O=C(CN1CCC(N[*:1])CC1)[*:2]; Suc = O=C(CCC(=O)[*:2])[*:1]; Api = NC1(C(=O)O)CCNCC1; Thp = NC1(C(=O)O)CCOCC1; Aib = CC(C)(N)C(=O)O A value given as a limit tells only on which side of the number the result lay.

For assay [1], the target named is T1, human GIP receptor (bioGIPR) (Homo sapiens, UniProt P48546).
T1 construct: Biotinylate extracellular of the human GIP receptor (bioGIPR, Proteros biostructures GmbH, lot #02/2b); purchased Proteros biostructures GmbH lot #02/2b
T1 sequence (P48546 22-138 limits assumed): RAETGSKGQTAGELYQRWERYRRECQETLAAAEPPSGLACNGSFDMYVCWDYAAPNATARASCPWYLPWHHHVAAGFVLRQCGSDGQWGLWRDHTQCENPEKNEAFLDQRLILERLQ
As to the kind of experiment: Surface plasmon resonance (SPR) based binding assay. The note with it: Single Cycle Kinetic mode, 25° C.; for t1/2 Category: SPR dissociation half-life; for Kd: SPR, 1:1 Langmuir binding model, read-out: pKD Category (converted). The gist of the method:
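Binding was measured at 25 °C by single-cycle kinetics against a reference flow cell, with blank-run and drift correction, after capturing biotinylated GIPR extracellular domain to ~3500 RU. Running buffer: HBST, 0.1% DMSO. A 1:1 Langmuir model gave kinetic rates, KD, t1/2 and pKD.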

Assay [2] deals with T2, GIPR (CHO-K1-hGIPR cells) (Homo sapiens, UniProt P48546).
T2 construct: host or cells: CHO-K1
T2 sequence (P48546 22-466): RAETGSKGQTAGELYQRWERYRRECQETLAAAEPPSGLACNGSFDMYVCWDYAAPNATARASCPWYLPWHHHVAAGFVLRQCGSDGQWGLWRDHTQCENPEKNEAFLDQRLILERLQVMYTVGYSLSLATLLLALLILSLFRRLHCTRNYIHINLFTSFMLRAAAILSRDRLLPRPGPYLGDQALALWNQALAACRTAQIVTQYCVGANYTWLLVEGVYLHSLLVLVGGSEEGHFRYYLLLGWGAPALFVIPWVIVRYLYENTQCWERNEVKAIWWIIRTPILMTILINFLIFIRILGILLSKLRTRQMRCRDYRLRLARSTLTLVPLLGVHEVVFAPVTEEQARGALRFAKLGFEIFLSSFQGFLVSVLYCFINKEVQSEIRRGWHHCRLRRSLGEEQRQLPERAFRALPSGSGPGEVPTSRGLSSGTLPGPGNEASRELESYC
Briefly: FACS binding assay. The following applies: competition with 20 nM GIP-057, 4° C., 1 hour, read-out: pIC50 Category (converted). The procedure, abridged: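 CHO-K1 cells expressing human GIPR, washed in PBS/1% FCS, then stained with 1 μg/mL APC-streptavidin for 30 min on ice.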

Consider `CC[C@H](C)[C@@H]1NC(=O)[C@H](CC(C)C)NC(=O)C2(CCNCC2)NC(=O)[C@@H](NC(=O)[C@@H](CC(C)C)NC(=O)[C@H](CCC(=O)O)NC(=O)[C@@H]2C[C@@H](N)CN2C(=O)[C@H](Cc2c[nH]c3ccc(Cl)cc23)NC(=O)[C@H](Cc2c[nH]c3ccccc23)NC(=O)[C@H](CC(=O)O)NC(=O)CCC(=O)NCCCOCCOCCOCCCNC(=O)CN2CCN(CC(=O)O)CCN(CC(=O)O)CCN(CC(=O)O)CC2)CNCc2cccc(n2)CSCCNC1=O` [GIP-113, DOTA-Ttds-Asp-Trp-5Clw-Tap-Glu-leu-[Dap(2Lut)-Apc-Leu-Ile-AET]], for which, in assay [1], the “t1/2 Category” value is “A (t1/2 values>15 min)” and the Kd is less than 1 nM. In assay [2], the IC50 was less than 10 nM.
Consider `CC[C@H](C)[C@@H]1NC(=O)[C@H](CC(C)C)NC(=O)C2(CCOCC2)NC(=O)[C@@H](NC(=O)[C@@H](CC(C)C)NC(=O)[C@H](CCC(=O)O)NC(=O)[C@@H]2C[C@@H](O)CN2C(=O)[C@H](Cc2c[nH]c3ccc(Cl)cc23)NC(=O)[C@H](Cc2c[nH]c3ccccc23)NC(=O)CCC(=O)O)CSCc2cccc(n2)CSC[C@@H](C(=O)NCCCCCNC(=O)CN2CCN(CC(=O)O)CCN(CC(=O)O)CCN(CC(=O)O)CC2)NC1=O` [GIP-117, HO-Succinyl-Trp-5Clw-Hyp-Glu-leu-[Cys(2Lut)-Thp-Leu-Ile-Cys]-Ape-DOTA] (Suc-W[Trp(5-Cl)][Hyp]E[dL]C[Thp]LIC-{NH(CH2)5NHDOTA}; linker 6-10 via Pyridine(2,6-diCH2)), for which, in assay [1], the “t1/2 Category” value is “A (t1/2 values>15 min)” and the Kd was less than 1 nM. In assay [2], the IC50 was less than 10 nM.
The like results for `CC[C@H](C)[C@@H]1NC(=O)[C@H](CC(C)C)NC(=O)C2(CCOCC2)NC(=O)[C@@H](NC(=O)[C@@H](CC(C)C)NC(=O)[C@H](CCC(=O)O)NC(=O)[C@@H]2C[C@@H](O)CN2C(=O)[C@H](Cc2c[nH]c3ccc(Cl)cc23)NC(=O)[C@H](Cc2c[nH]c3ccccc23)NC(=O)CCC(=O)O)CSCc2cccc(n2)CSC[C@@H](C(=O)N2CCN(C(=O)CN3CCN(CC(=O)O)CCN(CC(=O)O)CCN(CC(=O)O)CC3)CC2)NC1=O` [GIP-118, HO-Succinyl-Trp-5Clw-Hyp-Glu-leu-[Cys(2Lut)-Thp-Leu-Ile-Cys]-PP-DOTA] (Suc-W[Trp(5-Cl)][Hyp]E[dL]C[Thp]LIC-X8; linker 6-10 via Pyridine(2,6-diCH2)) were, in that order, “A (t1/2 values>15 min)”, less than 1 nM and less than 10 nM.
For `CC[C@H](C)[C@@H]1NC(=O)[C@H](CC(C)C)NC(=O)C2(CCNCC2)NC(=O)[C@@H](NC(=O)[C@@H](CC(C)C)NC(=O)[C@H](CCC(=O)O)NC(=O)[C@@H]2CCCN2C(=O)[C@H](Cc2c[nH]c3ccc(Cl)cc23)NC(=O)[C@H](Cc2c[nH]c3ccccc23)NC(=O)[C@H](CC(=O)O)NC(=O)CCC(=O)NCCCOCCOCCOCCCNC(=O)CN2CCN(CC(=O)O)CCN(CC(=O)O)CCN(CC(=O)O)CC2)CSCc2cccc(n2)CSCCNC1=O` [GIP-119, DOTA-Ttds-Asp-Trp-5Clw-Pro-Glu-leu-[Cys(2Lut)-Apc-Leu-Ile-AET]] ({X3-Suc}-DW[Trp(5-Cl)]PE[dL]C[Api]LI; linker 7-C via X6), in that order: “A (t1/2 values>15 min)”, less than 1 nM and less than 10 nM.
Turning to `CC[C@H](C)[C@@H]1NC(=O)[C@H](CC(C)C)NC(=O)C2(CCOCC2)NC(=O)[C@@H](NC(=O)[C@@H](CC(C)C)NC(=O)[C@H](CCC(=O)O)NC(=O)[C@@H]2C[C@@H](NC(=O)CN3CCN(CC(=O)O)CCN(CC(=O)O)CCN(CC(=O)O)CC3)CN2C(=O)[C@H](Cc2c[nH]c3ccc(Cl)cc23)NC(=O)[C@H](Cc2c[nH]c3ccccc23)NC(=O)[C@H](CC(=O)O)NC(C)=O)CSCc2cccc(n2)CSC[C@@H](C(N)=O)NC1=O` [GIP-121, Ac-Asp-Trp-5Clw-Tap(DOTA)-Glu-leu-[Cys(2Lut)-Thp-Leu-Ile-Cys]-NH2] (Ac-DW[Trp(5-Cl)][Pro(trans-4-NH2)](DOTA)E[dL]C[Thp]LIC-NH2; linker 7-11 via Pyridine(2,6-diCH2)), in assay [1], the “t1/2 Category” value was “A (t1/2 values>15 min)” and the Kd was less than 1 nM. In addition, the IC50 in assay [2] is less than 10 nM.
Regarding `CC[C@H](C)[C@@H]1NC(=O)[C@H](CC(C)C)NC(=O)C2(CCN(C(=O)CN3CCN4CCN5CCN(CC3)CC(=O)[O][In]([O]C(=O)C5)[O]C(=O)C4)CC2)NC(=O)[C@@H](NC(=O)[C@@H](CC(C)C)NC(=O)[C@H](CCC(=O)O)NC(=O)[C@@H]2C[C@@H](O)CN2C(=O)[C@H](Cc2c[nH]c3ccc(Cl)cc23)NC(=O)[C@H](Cc2c[nH]c3ccccc23)NC(=O)[C@H](CC(=O)O)NC(=O)CCCC(=O)NC[C@H](O)[C@@H](O)[C@H](O)[C@H](O)CO)CSCc2cccc(n2)CSCCNC1=O` [GIP-146, AGLU-Glutar-Asp-Trp-5Clw-Hyp-Glu-leu-[Cys(2Lut)-Apc(InDOTA)-Leu-Ile-AET]] ({NH(1-deoxy-D-glucityl)-Glutaryl}-DW[Trp(5-Cl)][Hyp]E[dL]C[Api](DOTA(In))LI; linker 7-C via X6), in assay [1], the Kd is less than 1 nM. For the same compound, the IC50 in assay [2] was less than 10 nM.
Take `CC[C@H](C)[C@@H]1NC(=O)[C@H](CC(C)C)NC(=O)C(C)(C)NC(=O)[C@@H](NC(=O)[C@@H](CC(C)C)NC(=O)[C@H](CCC(=O)O)NC(=O)[C@@H]2C[C@@H](O)CN2C(=O)[C@H](Cc2c[nH]c3ccc(Cl)cc23)NC(=O)[C@H](Cc2c[nH]c3ccccc23)NC(=O)[C@H](CC(=O)O)NC(=O)CCC(=O)NCCCOCCOCCOCCCNC(=O)CN2CCN3CCN4CCN(CC2)CC(=O)[O][In]([O]C(=O)C3)[O]C(=O)C4)CSCc2cccc(c2)CSCCNC1=O` [GIP-151, InDOTA-Ttds-Asp-Trp-5Clw-Hyp-Glu-leu-[Cys(3MeBn)-Aib-Leu-Ile-AET]] ({X11-Suc}-DW[Trp(5-Cl)][Hyp]E[dL]C[Aib]LI; linker 7-C via X7): in assay [1], the “t1/2 Category” value is “A (t1/2 values>15 min)” and the Kd is less than 1 nM. In addition, the IC50 in assay [2] was less than 10 nM.
As for `CC[C@H](C)[C@@H]1NC(=O)[C@H](CC(C)C)NC(=O)C(C)(C)NC(=O)[C@@H](NC(=O)[C@@H](CC(C)C)NC(=O)[C@H](CCC(=O)O)NC(=O)[C@@H]2CCCN2C(=O)[C@H](Cc2c[nH]c3ccc(Cl)cc23)NC(=O)[C@H](Cc2c[nH]c3ccccc23)NC(=O)[C@H](CC(=O)O)NC(=O)CN2CCC(NC(=O)CN3CCN4CCN5CCN(CC3)CC(=O)[O][In]([O]C(=O)C4)[O]C(=O)C5)CC2)CSCc2cccc(c2)CSCCNC1=O` [GIP-153, InDOTA-APAc-Asp-Trp-5Clw-Pro-Glu-leu-[Cys(3MeBn)-Aib-Leu-Ile-AET]] ({DOTA(In)}-[X1]DW[Trp(5-Cl)]PE[dL]C[Aib]LI; linker 8-C via X7), in assay [1], the Kd was less than 1 nM. In addition, the IC50 in assay [2] is less than 10 nM.
Regarding `CC[C@H](C)[C@@H]1NC(=O)[C@H](CC(C)C)NC(=O)C2(CCOCC2)NC(=O)[C@@H](NC(=O)[C@@H](CC(C)C)NC(=O)[C@H](CCC(=O)O)NC(=O)[C@@H]2C[C@@H](O)CN2C(=O)[C@H](Cc2c[nH]c3ccc(Cl)cc23)NC(=O)[C@H](Cc2c[nH]c3ccccc23)NC(=O)[C@H](CC(=O)O)NC(=O)CN2CCC(NC(=O)CN3CCN4CCN5CCN(CC3)CC(=O)[O][In]([O]C(=O)C4)[O]C(=O)C5)CC2)CSCc2cccc(n2)CSCCNC1=O` [GIP-155, InDOTA-APAc-Asp-Trp-5Clw-Hyp-Glu-leu-[Cys(2Lut)-Thp-Leu-Ile-AET]] ({DOTA(In)}-[X1]DW[Trp(5-Cl)][Hyp]E[dL]C[Thp]LI; linker 8-C via X6), the Kd in assay [1] was less than 1 nM. Also, the IC50 in assay [2] is less than 10 nM.
